“And” between values parts separate entries of the source, which are not always exact repeats. Equal values may be shown once.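 These data come from cells grown in 96-well plates and exposed to compound for 48 hours at five concentrations. The concentration for 50% growth inhibition is given as GI50.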 The source made the active and inactive calls. Rule as the data show it: active = GI50 up to about 1.1 µM and inactive = higher. Non-standard residues stand in square brackets, D forms with d. Residues, ends and D or L forms follow the SMILES beside them. ξ: configuration not given here. *: point of attachment. ξF = NC(Cc1ccccc1)C(=O)O; Cbz = O=C(OCc1ccccc1)*; Aib = CC(C)(N)C(=O)O
Assays:
Assay in all cases: NCI tumour cell line growth inhibition, 48 h
HOP-18 = tested on: HOP-18
786-0 = tested on: 786-0
KM-20L2 = tested on: KM-20L2
LXFL 529 = tested on: LXFL 529
RXF 631 = tested on: RXF 631
MDA-N = tested on: MDA-N
DU-145 = tested on: DU-145
PC-3 = tested on: PC-3
MDA-MB-435 = tested on: MDA-MB-435

Q: What does the source list for CC1(C)Cc2nnsc2C2=C1C(=O)CCS2?
A: GI50 (HOP-18): > 100 µM (inactive); GI50 (786-0): > 100 µM (inactive); GI50 (KM-20L2): > 100 µM (inactive); GI50 (LXFL 529): > 100 µM (inactive)

Q: What does the source list for O=C(Nc1nnc(S)[nH]1)C(=O)C(c1cnc2ccc([N+](=O)[O-])cc2n1)[N+](=O)[O-] (stereo not given)?
A: GI50 (HOP-18): > 100 µM (inactive); GI50 (RXF 631): > 100 µM (inactive); GI50 (786-0): > 100 µM (inactive); GI50 (KM-20L2): 81.3 µM (inactive); GI50 (LXFL 529): > 100 µM (inactive)

Q: With O=C1c2[nH]c3ccc(Br)cc3c2CCN1Cc1ccc(Cl)cc1 as the molecule, how does the GI50 (MDA-N) read?
A: 14.7 µM (inactive)

Q: What about the GI50 (DU-145) of the same molecule?
A: 14.2 µM (inactive)

Q: And the GI50 (PC-3)?
A: 4.74 µM (inactive)

Q: What about the GI50 (MDA-MB-435) of the same molecule?
A: 14.4 µM (inactive)

Q: What about the GI50 (786-0) of the same molecule?
A: 11.3 µM (inactive)

Q: How did the GI50 (HOP-18) turn out when COc1ccc(-n2cnnc2-c2nsc3ccccc23)cc1 was run?
A: 36.6 µM (inactive)

Q: What about the GI50 (KM-20L2) of the same molecule?
A: > 100 µM (inactive)

Q: And the GI50 (LXFL 529)?
A: > 100 µM (inactive)

Q: With c1cc(CNC2C3CCC(C3)C2c2c[nH]c3ccccc23)cc(CNC2C3CCC(C3)C2c2c[nH]c3ccccc23)c1 (stereo not given) as the molecule, how does the GI50 (DU-145) read?
A: 1.57 µM (inactive) and 1.3 µM (inactive)

Q: What about the GI50 (PC-3) of the same molecule?
A: 1.6 µM (inactive) and 1.64 µM (inactive)

Q: And the GI50 (MDA-MB-435)?
A: 658 nM (active) and 637 nM (active)

Q: COc1ccc(N2C(=O)C(=O)C3(CCCCC3)C2=O)c2ccccc12 was tested. Which GI50 (MDA-N) did it give?
A: > 10 µM (inactive)

Q: And the GI50 (DU-145)?
A: > 10 µM (inactive)

Q: What about the GI50 (PC-3) of the same molecule?
A: > 10 µM (inactive)

Q: What about the GI50 (MDA-MB-435) of the same molecule?
A: > 10 µM (inactive)

Q: Which GI50 (HOP-18) does the source give for CN1C(=O)c2ccccc2NC(=O)c2cnn(C)c21 here?
A: > 100 µM (inactive)

Q: What about the GI50 (KM-20L2) of the same molecule?
A: > 100 µM (inactive)

Q: C=CC(OC(C)=O)c1ccc(OC(C)=O)cc1 (stereo not given) was tested. Which GI50 (MDA-N) did it give?
A: 4.95 µM (inactive)

Q: What about the GI50 (DU-145) of the same molecule?
A: 10.4 µM (inactive)

Q: What about the GI50 (PC-3) of the same molecule?
A: 2.56 µM (inactive)

Q: And the GI50 (MDA-MB-435)?
A: 3.45 µM (inactive)

Q: What about the GI50 (786-0) of the same molecule?
A: 1.56 µM (inactive)

Q: With CCN(CC)CCn1c(=O)c2c(C)c3oc4ccccc4oc3c(C)c2c1=O as the molecule, how does the GI50 (MDA-N) read?
A: > 100 µM (inactive)

Q: What about the GI50 (PC-3) of the same molecule?
A: > 100 µM (inactive)

Q: And the GI50 (MDA-MB-435)?
A: > 100 µM (inactive)

Q: What about the GI50 (786-0) of the same molecule?
A: 48.2 µM (inactive)

Q: With COc1ccc(N2NC(c3ccccc3)(c3ccccc3)C(C)C2=O)cc1 (stereo not given) as the molecule, how does the GI50 (MDA-N) read?
A: 39.1 µM (inactive)

Q: And the GI50 (DU-145)?
A: > 100 µM (inactive)

Q: And the GI50 (PC-3)?
A: 30.3 µM (inactive)

Q: And the GI50 (MDA-MB-435)?
A: 57.3 µM (inactive)

Q: Which GI50 (HOP-18) does the source give for COC1=CC(=O)c2c(c(O)c3oc4cc(OC)cc(C)c4c(=O)c3c2O)C1=O [BIKAVERIN] here?
A: 0.906 µM (active)

Q: What about the GI50 (KM-20L2) of the same molecule?
A: 5.94 µM (inactive)

Q: Which GI50 (KM-20L2) does the source give for O=c1sc2ccccc2n1CC1CS1 (stereo not given) here?
A: > 100 µM (inactive)

Q: Which GI50 (KM-20L2) does the source give for C/C(CCOC1CCCCO1)=C(\C)[Si](C)(C)C (stereo not given) here?
A: > 100 µM (inactive)

Q: What about the GI50 (LXFL 529) of the same molecule?
A: > 100 µM (inactive)

Q: C[n+]1cccc2c(=O)c3ccccc3oc21 was tested. Which GI50 (MDA-N) did it give?
A: > 100 µM (inactive)

Q: What about the GI50 (DU-145) of the same molecule?
A: > 100 µM (inactive)

Q: What about the GI50 (PC-3) of the same molecule?
A: > 100 µM (inactive)

Q: And the GI50 (MDA-MB-435)?
A: > 100 µM (inactive)

Q: For CN(C)CCNc1ccc(NCC[N+](C)(C)Cc2ccc([N+](=O)[O-])cc2)c2c1C(=O)c1ccccc1C2=O, which GI50 (MDA-N) is on record?
A: 18.3 µM (inactive)

Q: What about the GI50 (DU-145) of the same molecule?
A: 14.1 µM (inactive)

Q: What about the GI50 (PC-3) of the same molecule?
A: 13.6 µM (inactive)

Q: What about the GI50 (MDA-MB-435) of the same molecule?
A: > 25 µM (inactive)

Q: And the GI50 (786-0)?
A: 16.2 µM (inactive)

Q: For Nc1ccn(C2OC(COP(=O)(O)Oc3ccccc3)C(O)C2O)c(=O)n1 (stereo not given), which GI50 (HOP-18) is on record?
A: > 74.5 µM (inactive)

Q: And the GI50 (KM-20L2)?
A: > 39.7 µM (inactive)

Q: With CCOC(=O)CNC(=O)C(Cc1ccccc1)NC(=O)C(C)(C)NC(=O)OCc1ccccc1 (stereo not given) (Cbz-[Aib]-[ξF]-Gly-OEt) as the molecule, how does the GI50 (MDA-N) read?
A: > 100 µM (inactive)

Q: What about the GI50 (DU-145) of the same molecule?
A: 28.6 µM (inactive)

Q: What about the GI50 (PC-3) of the same molecule?
A: > 100 µM (inactive)

Q: What about the GI50 (MDA-MB-435) of the same molecule?
A: 67.3 µM (inactive)

Q: C=CCCCC12CCCc3cccc(c31)NC2=O (stereo not given) was tested. Which GI50 (RXF 631) did it give?
A: 20.6 µM (inactive)

Q: And the GI50 (KM-20L2)?
A: 21.2 µM (inactive)

Q: What does the source list for O=c1[nH]c(=S)[nH]c2c(C3OC(CO)C(O)C3O)nsc12 (stereo not given)?
A: GI50 (MDA-N): > 100 µM (inactive); GI50 (DU-145): > 100 µM (inactive); GI50 (PC-3): > 100 µM (inactive); GI50 (MDA-MB-435): > 100 µM (inactive)

Source: ChEMBL document CHEMBL1201862, “PubChem BioAssay data set” (2004)
